Reference: patent publication US6136825A, “Sulfonamide compounds having 5-HT receptor activity” (Knoll Aktiengesellschaft, priority 1996, dated 2000)

Experiments:
[1] = target: T1, 5-HT1A (Rattus norvegicus, UniProt P19327); experiment: inhibition of tritiated ligand ([3H]8-OH-DPAT) binding to 5-HT1A receptors, rat hippocampal tissue; parameters: species or system male Charles River CD rats; conditions: for inhibition at 1 µM: at 10^-6 M, read-out: % displacement of specific binding, 5-HT1A; for Ki: 25° C., 30 minutes, pH 7.7
T1 construct: Hippocampal tissue from the brains of male Charles River CD rats; from tissue; host or cells: rat hippocampus (male Charles River CD rats), crude membrane pellet
T1 sequence (P19327 1-422): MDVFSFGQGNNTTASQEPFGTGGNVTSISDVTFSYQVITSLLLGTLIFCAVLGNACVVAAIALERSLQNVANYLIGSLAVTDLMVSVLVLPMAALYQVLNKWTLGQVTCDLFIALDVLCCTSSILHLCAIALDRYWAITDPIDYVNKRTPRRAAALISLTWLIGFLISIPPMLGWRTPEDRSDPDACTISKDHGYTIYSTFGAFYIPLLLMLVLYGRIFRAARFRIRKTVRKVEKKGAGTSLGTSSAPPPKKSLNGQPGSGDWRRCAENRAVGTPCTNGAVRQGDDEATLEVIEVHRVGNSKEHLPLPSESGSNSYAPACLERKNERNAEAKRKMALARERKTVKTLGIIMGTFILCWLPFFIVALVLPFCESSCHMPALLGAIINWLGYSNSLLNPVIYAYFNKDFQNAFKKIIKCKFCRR
Description: Hippocampal tissue from the brains of male Charles River CD rats weighing between 150-250 g were homogenised in ice-cold 50 mM Tris-HCl buffer (pH 7.7) when measured at 25° C., 1:40 w/v) and centrifuged at 30,000 g at 4° C. for 10 minutes. The pellet was rehomogenised in the same buffer, incubated at 37° C. for 10 minutes and centrifuged at 30,000 g at 4° C. for 10 minutes. The final pellet was resuspended in 50 mM Tris-HCl buffer (pH 7.7) containing 4 mM CaCl2, 0.1% L-ascorbic acid and 10 μM pargyline hydrochloride (equivalent to 6.25 mg wet weight of tissue/ml) and used immediately in the binding assay. Aliquots (400 μl; equivalent to 2.5 mg wet weight of tissue/tube) of this suspension were added to tubes containing the ligand (50 μl; 2 nM) and distilled water (50 μl; total binding) or 5-HT (50 μl; 10 μM; non-specific binding) or test compound (50 μl; at a single concentration of 10^-6 M or at 10 concentrations ranging from 10^-11 -10^-3 M). The ligand was [^3 H]8-hydroxy-2-(dipropylamino)tetralin ([^3 H]8-OH-DPAT) and the mixture was incubated at 25° C. for 30 minutes before the incubation was terminated by rapid filtration.
The filters were washed with ice-cold Tris-HCl buffer and dried. The filters were punched out into vials, scintillation fluid added and radioactivity determined by liquid scintillation counting. The percentage displacement of specific binding of the tritiated ligand was calculated for the single concentration (10^-6 M) of test compound. Displacement curves were then produced for those compounds which displaced ≥50% of specific binding of the tritiated ligand at 10^-6 M using a range of concentrations of the compound. The concentration which gave 50% inhibition of specific binding (IC50) was obtained from the curve. The inhibition coefficient Ki was then calculated using the formula [formula] in which [ligand] is the concentration of the tritiated ligand used and KD Is the equilibrium dissociation constant for the ligand.

[2] = target: T2, D2-like dopamine receptors (Rattus norvegicus, UniProt P61169); experiment: inhibition of tritiated (S)-sulpiride binding to D2-like dopamine receptors, rat striatal tissue; parameters: species or system male Charles River CD rats; conditions: for inhibition at 1 µM: at 10^-6 M, read-out: % displacement of specific binding, D2-like; for Ki: 4° C., 40 minutes, pH 7.7
T2 construct: Striatal tissue from the brains of male Charles River CD rats; from tissue; host or cells: rat striatum (male Charles River CD rats), crude membrane pellet
T2 sequence (P61169 whole entry): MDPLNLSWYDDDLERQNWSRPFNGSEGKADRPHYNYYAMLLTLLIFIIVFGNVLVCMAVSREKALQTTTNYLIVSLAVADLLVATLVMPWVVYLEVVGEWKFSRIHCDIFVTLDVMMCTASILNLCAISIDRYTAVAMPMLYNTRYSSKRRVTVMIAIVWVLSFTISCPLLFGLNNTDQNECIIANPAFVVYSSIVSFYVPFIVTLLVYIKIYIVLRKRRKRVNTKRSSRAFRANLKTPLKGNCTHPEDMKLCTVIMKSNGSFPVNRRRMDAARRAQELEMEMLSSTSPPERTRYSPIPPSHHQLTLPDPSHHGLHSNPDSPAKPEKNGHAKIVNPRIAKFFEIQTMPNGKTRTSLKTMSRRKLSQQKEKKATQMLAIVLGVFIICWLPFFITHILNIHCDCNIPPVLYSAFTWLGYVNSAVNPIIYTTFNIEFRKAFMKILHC
Description: Striatal tissue from the brains of male Charles River CD rats weighing between 140-250 g were homogenised in ice-cold 50 mM Tris-HCl buffer (pH 7.7 when measured at 25° C.) and centrifuged at 40,000 g for 10 minutes. The pellet was resuspended in Tris salts buffer (50 mM Tris-HCl buffer containing 120 mM NaCl, 5 mM KCl, 2 mM CaCl2 and 1 mM MgCl2 with the addition of 6 mM ascorbic acid; pH 7.7 when measured at 25° C.), and again centrifuged at 40,000 g for 10 minutes. The final pellet was stored at -80° C. Before each test the pellet was resuspended in Tris salts buffer (equivalent to 2 mg wet weight of tissue/ml). Aliquots (720 μl; equivalent to 1.44 mg wet weight of tissue/tube) of this suspension were then added to tubes containing the ligand (40 μl; 1 nM) and Tris salts buffer (40 μl; total binding) or spiroperidol (40 μl; 10 nM; non-specific binding) or test compound (40 μl; at a single concentration of 10^-6 M or at 6 concentrations ranging from 10^-11 -10^-4 M). The ligand was tritiated (S)-sulpiride and the mixture was incubated at 4° C. for 40 minutes before the incubation was terminated by rapid filtration.
The filters were washed with ice-cold Tris-HCl buffer and dried. The filters were punched out in to vials, scintillation fluid added and were left for about 20 hours before being counted by scintillation spectrophotometry. The percentage displacement of specific binding of the tritiated ligand was calculated for the single concentration (10^-6 M) of test compound. Displacement curves were then produced over a range of concentrations for those compounds which displaced ≥50% of specific binding of the tritiated ligand at 10^-6 M. The concentration which gave a 50% inhibition of specific binding (IC50) was obtained from the curve. The inhibition coefficient Ki was then calculated using the formula [formula] in which [ligand] is the concentration of the tritiated ligand used and KD is the equilibrium dissociation constant for the ligand.

**Q.** For O=S(=O)(NCC1CCN(C[C@H]2COc3ccc(Cl)cc3O2)CC1)c1ccccc1Cl [Example 41, (S)-(-)-2-Chloro-N-{[1-(7-chloro-1,4-benzodioxan-2-ylmethyl)-4-piperidyl]methyl}benzenesutphonamide], which inhibition at 1 µM [1] is on record?
**A.** 93%

**Q.** What about the inhibition at 1 µM [2] of the same compound?
**A.** 106%

**Q.** With O=S(=O)(NCC1CCN(C[C@H]2COc3ccc(Cl)cc3O2)CC1)c1ccc(F)c(Cl)c1 [Example 42, (S)-(-)-3-Chloro-N-{[1-(7-chloro-1,4-benzodioxan-2-ylmethyl)-4-piperidyl]methyl}-4-fluoro-benzenesulphonamide] as the compound, how does the inhibition at 1 µM [1] read?
**A.** 80%

**Q.** And the inhibition at 1 µM [2]?
**A.** 84%

**Q.** How did the Ki [1] turn out when O=S(=O)(NCC1CCN(C[C@H]2COc3ccc(Cl)cc3O2)CC1)c1cccc(Cl)c1Cl [Example 43, (S)-(-)-2,3-Dichloro-N-{[1-(7-chloro-1,4-benzodioxan-2-ylmethyl)-4-piperidyl]methyl}benzenesulphonamide] was run?
**A.** 1.5 nM

**Q.** And the Ki [2]?
**A.** 73 nM

**Q.** How did the Ki [1] turn out when CC(=O)Nc1ccc(S(=O)(=O)NCC2CCN(C[C@H]3COc4ccc(Br)cc4O3)CC2)cc1 [Example 44, (S)-(-)-4-Acetamido-N-{[1-(7-bromo-1,4-benzodioxan-2-ylmethyl}-4-piperidyl]methyl)benzenesulphonamide] was run?
**A.** 14 nM

**Q.** And the Ki [2]?
**A.** 23 nM

**Q.** O=S(=O)(NCC1CCN(C[C@H]2COc3ccc(Br)cc3O2)CC1)c1ccccc1F [Example 45, (S)-(-)-N-{[1-(7-Bromo-1,4-benzodioxan-2-ylmethyl)-4-piperidyl]methyl}-2-fluorobenzenesulphonamide] was tested. Which inhibition at 1 µM [1] did it give?
**A.** 97%

**Q.** What about the inhibition at 1 µM [2] of the same compound?
**A.** 109%

**Q.** O=S(=O)(NCC1CCN(C[C@H]2COc3ccc(Br)cc3O2)CC1)c1ccccc1Cl [Example 46, (S)-(-)-N-{[1-(7-Bromo-1,4-benzodioxan-2-ylmethyl)-4-piperidyl]methyl}-2-chlorobenzenesulphonamide] was tested. Which inhibition at 1 µM [1] did it give?
**A.** 96%

**Q.** What about the inhibition at 1 µM [2] of the same compound?
**A.** 106%

**Q.** What does the source list for O=S(=O)(NCC1CCN(C[C@H]2COc3ccc(Br)cc3O2)CC1)c1ccc(F)cc1F [Example 47, (S)-(-)-N-{[1-(7-Bromo-1,4-benzodioxan-2-ylmethyl)-4-piperidyl]methyl}-2,4-difluorobenzenesulphonamide]?
**A.** Ki [1]: 16 nM; Ki [2]: 48 nM

**Q.** Which results are given for O=S(=O)(NCC1CCN(C[C@H]2COc3ccc(Br)cc3O2)CC1)c1ccc(F)c(Cl)c1 [Example 48, (S)-(-)-3-Chloro-N-{[1-(7-bromo-1,4-benzodioxan-2-ylmethyl)-4-piperidyl]methyl}-4-fluorobenzenesulphonamide]?
**A.** inhibition at 1 µM [1]: 88%; inhibition at 1 µM [2]: 103%

**Q.** What does the source list for O=S(=O)(NCC1CCN(C[C@H]2COc3cc4c(cc3O2)OCO4)CC1)c1cccc(Cl)c1Cl [Example 49, (S)-(-)-2,3-Dichloro-N-{[1-(^6,^7-methylenedioxy-1,4-benzodioxan-2-ylmethyl)-4-piperidyl]methyl}benzenesulphonamide]?
**A.** inhibition at 1 µM [1]: 77%; inhibition at 1 µM [2]: 89%
